This assay addresses Metabotropic glutamate receptor 5 (Homo sapiens, UniProt P41594). The assay can be described thus: Inhibition of glutamate-induced calcium influx in human mGluR5d by FLIPR.

Structures are written as SMILES. Where only a bound is given, the exact number is not on record here.

Metabotropic glutamate receptor 5, sequence (P41594 whole entry): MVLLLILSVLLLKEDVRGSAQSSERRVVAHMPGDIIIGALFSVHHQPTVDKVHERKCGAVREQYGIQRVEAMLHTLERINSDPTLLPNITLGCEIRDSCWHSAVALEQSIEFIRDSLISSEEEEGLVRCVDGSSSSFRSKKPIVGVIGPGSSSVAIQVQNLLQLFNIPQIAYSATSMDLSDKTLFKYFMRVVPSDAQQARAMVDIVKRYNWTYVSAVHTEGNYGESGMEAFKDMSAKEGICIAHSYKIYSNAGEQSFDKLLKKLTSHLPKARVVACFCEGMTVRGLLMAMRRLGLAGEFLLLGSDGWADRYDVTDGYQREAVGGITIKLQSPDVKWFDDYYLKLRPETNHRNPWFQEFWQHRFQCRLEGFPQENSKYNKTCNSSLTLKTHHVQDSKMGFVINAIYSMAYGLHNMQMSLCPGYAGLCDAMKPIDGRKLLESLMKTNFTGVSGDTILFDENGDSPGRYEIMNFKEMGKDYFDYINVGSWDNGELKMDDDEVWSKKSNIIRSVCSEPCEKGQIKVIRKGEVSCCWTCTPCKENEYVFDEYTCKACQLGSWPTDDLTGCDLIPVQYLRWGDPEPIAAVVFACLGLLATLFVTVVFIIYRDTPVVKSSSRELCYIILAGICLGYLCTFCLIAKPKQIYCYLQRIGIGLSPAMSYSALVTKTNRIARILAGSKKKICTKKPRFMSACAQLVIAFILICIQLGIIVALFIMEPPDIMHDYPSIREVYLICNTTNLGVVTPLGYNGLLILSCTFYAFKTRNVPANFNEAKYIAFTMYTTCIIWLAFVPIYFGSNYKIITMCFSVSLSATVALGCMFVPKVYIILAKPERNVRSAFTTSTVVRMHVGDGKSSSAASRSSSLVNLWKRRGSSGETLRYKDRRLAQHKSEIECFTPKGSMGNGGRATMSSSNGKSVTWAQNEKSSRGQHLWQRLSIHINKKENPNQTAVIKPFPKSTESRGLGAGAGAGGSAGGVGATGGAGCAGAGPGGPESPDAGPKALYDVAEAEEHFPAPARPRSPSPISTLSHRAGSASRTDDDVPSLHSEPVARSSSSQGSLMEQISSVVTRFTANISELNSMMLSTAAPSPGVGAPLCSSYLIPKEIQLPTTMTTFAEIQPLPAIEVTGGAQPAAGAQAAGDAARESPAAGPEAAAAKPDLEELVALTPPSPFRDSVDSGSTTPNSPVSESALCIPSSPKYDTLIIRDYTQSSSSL

With `Cn1cc(O)nc1NC(=O)Nc1cccs1` [1-(1-methyl-4-oxoimidazolidin-2-ylidene)-3-(thiophen-2-yl)urea], the IC50 worked out at 4.9 µM. Then `Cc1ccccc1NC(=O)Nc1nc(O)c2n1CCC2` [1-(1-oxo-hexahydropyrrolo[1,2-e]imidazol-3-ylidene)-3-o-tolylurea], with > 10 µM. Turning to `Cc1cccc(NC(=O)Nc2nc(O)c3n2CCC3)c1C` [1-(2,3-dimethylphenyl)-3-(1-oxo-hexahydropyrrolo[1,2-e]imidazol-3-ylidene)urea], the IC50 is > 10 µM.

For the molecule `Cc1ccc(C)c(NC(=O)Nc2nc(O)c3n2CCC3)c1` [1-(2,5-dimethylphenyl)-3-(1-oxo-hexahydropyrrolo[1,2-e]imidazol-3-ylidene)urea], the IC50 is > 10 µM. Then `Cn1cc(O)nc1NC(=O)Nc1cc(Cl)cc(Cl)c1` [1-(3,5-dichlorophenyl)-3-(1-methyl-4-oxoimidazolidin-2-ylidene)urea], with > 10 µM; and `Cc1ccc(NC(=O)Nc2nc(O)c3n2CCC3)cc1Cl` [1-(3-chloro-4-methylphenyl)-3-(1-oxo-hexahydropyrrolo[1,2-e]imidazol-3-ylidene)urea], with > 10 µM. For the molecule `O=C(Nc1ccc(Cl)cc1)Nc1nc(O)c2n1CCC2` [1-(4-chlorophenyl)-3-(1-oxo-hexahydropyrrolo[1,2-e]imidazol-3-ylidene)urea], the IC50 was > 10 µM.

Turning to `CCCCCCNC(=O)Nc1nc(O)cn1C` [1-hexyl-3-(1-methyl-4-oxoimidazolidin-2-ylidene)urea], the IC50 is > 10 µM. For `Cn1cc(O)nc1NC(=O)Nc1ccccc1` [(E)-1-(1-methyl-4-oxoimidazolidin-2-ylidene)-3-phenylurea], the half-maximal inhibitory concentration (IC50) is 4.9 µM. Then `COC(=O)c1cccc(NC(=O)Nc2nc(O)cn2C)c1` [methyl 3-(3-(1-methyl-4-oxoimidazolidin-2-ylidene)ureido)benzoate], with > 10 µM.

The IC50 is the concentration at which inhibition is half-maximal.

The values above are taken from BindingDB's records for doi:10.1016/j.bmcl.2005.11.092 (Astrazeneca R&D, 2006).
